Measured values as given in ChEMBL document CHEMBL1201862, “PubChem BioAssay data set” (2004).
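Values below derive from 48-hour exposures of cells grown in 96-well plates, with endpoints linearly interpolated between the two concentrations bracketing the appropriate inhibition level. At the GI50, growth is halved.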 Activity calls are given as the source filed them. No stated cut-off is given here; in the data, active = GI50 up to about 1.1 µM and inactive = higher. Where a SMILES comes first, the peptide text is derived from it. [ ]: non-standard residue; d: D form. The star is where a group is joined. ξ: configuration not given here. ξPhe(4-NO2) = NC(Cc1ccc([N+](=O)[O-])cc1)C(=O)O; Boc = CC(C)(C)OC(=O)*

Tests used:
Assay in all cases: growth of human tumour cells (NCI), 48 h
SNB-19 = system: SNB-19
NCI/ADR-RES = system: NCI/ADR-RES
HOP-92 = system: HOP-92
NCI-H23 = system: NCI-H23
MDA-N = system: MDA-N
CAKI-1 = system: CAKI-1
HCC 2998 = system: HCC 2998
A549 = system: A549
HCT-15 = system: HCT-15
SK-MEL-5 = system: SK-MEL-5
NCI-H522 = system: NCI-H522
HT-29 = system: HT-29
SNB-75 = system: SNB-75
786-0 = system: 786-0
SR = system: SR
SF-268 = system: SF-268
NCI-H226 = system: NCI-H226
NCI-H460 = system: NCI-H460
SN12C = system: SN12C
UO-31 = system: UO-31
UACC-257 = system: UACC-257
ACHN = system: ACHN
SK-MEL-28 = system: SK-MEL-28
HL-60 = system: HL-60
DU-145 = system: DU-145
COLO 205 = system: COLO 205
MCF7 = system: MCF7
SK-MEL-2 = system: SK-MEL-2
Malme-3M = system: Malme-3M
MDA-MB-231 = system: MDA-MB-231
OVCAR-8 = system: OVCAR-8
IGROV-1 = system: IGROV-1
RPMI-8226 = system: RPMI-8226
PC-3 = system: PC-3
EKVX = system: EKVX
U-251 = system: U-251
KM12 = system: KM12
T47D = system: T47D
MDA-MB-435 = system: MDA-MB-435
K562 = system: K562
SF-539 = system: SF-539
RXF 393 = system: RXF 393
LOX IMVI = system: LOX IMVI
HCT-116 = system: HCT-116
UACC-62 = system: UACC-62
M14 = system: M14
A498 = system: A498
OVCAR-5 = system: OVCAR-5
BT-549 = system: BT-549
Hs-578T = system: Hs-578T
TK-10 = system: TK-10
OVCAR-4 = system: OVCAR-4
SW-620 = system: SW-620
MOLT-4 = system: MOLT-4
CCRF-CEM = system: CCRF-CEM
OVCAR-3 = system: OVCAR-3
SK-OV-3 = system: SK-OV-3
HOP-62 = system: HOP-62
SF-295 = system: SF-295

Measured: GI50

Cc1cc(=O)oc2cc(O)c(CN(C)CC(=O)O)cc12
inactive: SNB-19 > 100 µM | NCI/ADR-RES > 100 µM | HOP-92 > 100 µM | NCI-H23 > 100 µM | MDA-N > 100 µM | CAKI-1 > 100 µM | HCC 2998 > 100 µM | A549 > 100 µM | SK-MEL-5 > 100 µM | NCI-H522 > 100 µM | HT-29 > 100 µM | SNB-75 > 100 µM | 786-0 > 100 µM | SR > 100 µM | SF-268 > 100 µM | NCI-H226 > 100 µM | NCI-H460 > 100 µM | SN12C > 100 µM | UO-31 > 100 µM | UACC-257 > 100 µM | ACHN > 100 µM | SK-MEL-28 > 100 µM | HL-60 > 100 µM | DU-145 > 100 µM | COLO 205 > 100 µM | MCF7 > 100 µM | SK-MEL-2 > 100 µM | Malme-3M > 100 µM | MDA-MB-231 > 100 µM | OVCAR-8 > 100 µM | IGROV-1 > 100 µM | RPMI-8226 > 100 µM | PC-3 > 100 µM | EKVX > 100 µM | U-251 > 100 µM | KM12 > 100 µM | T47D > 100 µM | MDA-MB-435 > 100 µM | K562 > 100 µM | SF-539 > 100 µM | RXF 393 > 100 µM | LOX IMVI > 100 µM | HCT-116 > 100 µM | UACC-62 > 100 µM | M14 > 100 µM | A498 > 100 µM | OVCAR-5 > 100 µM | BT-549 > 100 µM | Hs-578T > 100 µM | TK-10 > 100 µM | OVCAR-4 > 100 µM | SW-620 > 100 µM
> 100 µM: HCT-15

N=c1oc2c(Cl)cc(Cl)cc2cc1C(=O)Nc1cccc2ccccc12
10.3 µM: HCT-15
inactive: SNB-19 19.5 µM | MOLT-4 7.48 µM | NCI/ADR-RES 4.93 µM | HOP-92 15.3 µM | NCI-H23 16.5 µM | MDA-N 33 µM | CAKI-1 10.6 µM | HCC 2998 6.93 µM | A549 6.55 µM | CCRF-CEM 3.57 µM | SK-MEL-5 37.9 µM | NCI-H522 8.17 µM | HT-29 39.4 µM | SNB-75 3.2 µM | OVCAR-3 4.61 µM | 786-0 5.71 µM | SR 12.4 µM | SF-268 18 µM | NCI-H226 19.3 µM | NCI-H460 5.01 µM | SN12C 3.58 µM | UO-31 10.2 µM | UACC-257 > 100 µM | ACHN 3.52 µM | SK-MEL-28 > 80.9 µM | SK-OV-3 15.9 µM | HL-60 18.8 µM | DU-145 > 89.9 µM | COLO 205 7.57 µM | MCF7 > 53.6 µM | Malme-3M 26.3 µM | MDA-MB-231 3.78 µM | HOP-62 7.98 µM | OVCAR-8 3.44 µM | IGROV-1 5.32 µM | RPMI-8226 10 µM | PC-3 24.2 µM | EKVX 8.93 µM | U-251 2.73 µM | KM12 53.8 µM | T47D 5.2 µM | MDA-MB-435 27 µM | K562 13.3 µM | RXF 393 16.7 µM | LOX IMVI 4.7 µM | HCT-116 4.79 µM | UACC-62 40.6 µM | M14 > 44.7 µM | A498 7.62 µM | OVCAR-5 21.7 µM | BT-549 30.1 µM | Hs-578T 7.94 µM | SF-295 18.7 µM | TK-10 2.33 µM | OVCAR-4 2.49 µM | SW-620 3.62 µM

C=C(C)C(O)C(O)c1c(OC)ccc2ccc(=O)oc12 (configuration not stated)
inactive: SNB-19 > 100 µM | MOLT-4 > 100 µM | NCI/ADR-RES > 100 µM | HOP-92 > 100 µM | NCI-H23 > 100 µM | MDA-N > 100 µM | CAKI-1 > 100 µM | HCC 2998 > 100 µM | A549 > 100 µM | CCRF-CEM > 100 µM | SK-MEL-5 > 100 µM | NCI-H522 > 100 µM | HT-29 > 100 µM | SNB-75 > 100 µM | OVCAR-3 > 100 µM | 786-0 > 100 µM | SR > 100 µM | SF-268 > 100 µM | NCI-H226 > 100 µM | NCI-H460 > 100 µM | SN12C > 100 µM | UO-31 > 100 µM | UACC-257 > 100 µM | ACHN > 100 µM | SK-MEL-28 > 100 µM | SK-OV-3 > 100 µM | HL-60 > 100 µM | DU-145 > 100 µM | COLO 205 > 100 µM | MCF7 > 100 µM | SK-MEL-2 > 100 µM | Malme-3M > 100 µM | MDA-MB-231 > 100 µM | HOP-62 > 100 µM | OVCAR-8 > 100 µM | IGROV-1 > 100 µM | RPMI-8226 > 100 µM | PC-3 > 100 µM | EKVX > 100 µM | U-251 > 100 µM | KM12 > 100 µM | T47D > 100 µM | MDA-MB-435 > 100 µM | K562 > 100 µM | SF-539 > 100 µM | RXF 393 > 100 µM | HCT-116 > 100 µM | UACC-62 > 100 µM | M14 > 100 µM | A498 > 100 µM | OVCAR-5 > 100 µM | BT-549 > 100 µM | Hs-578T > 100 µM | SF-295 > 100 µM | TK-10 > 100 µM | OVCAR-4 > 100 µM | SW-620 > 100 µM
> 100 µM: HCT-15

CCOC(=O)CN1C(=O)c2c(c(C)n(-c3ccccc3)c2C)C1=O
inactive: SNB-19 > 100 µM | MOLT-4 > 100 µM | NCI/ADR-RES > 100 µM | HOP-92 > 100 µM | NCI-H23 > 100 µM | MDA-N > 100 µM | CAKI-1 > 100 µM | HCC 2998 > 100 µM | A549 > 100 µM | CCRF-CEM > 100 µM | SK-MEL-5 > 100 µM | NCI-H522 > 100 µM | HT-29 > 100 µM | SNB-75 82.8 µM | OVCAR-3 > 100 µM | 786-0 > 100 µM | SR > 100 µM | SF-268 > 100 µM | NCI-H226 > 100 µM | NCI-H460 > 100 µM | SN12C > 100 µM | UO-31 > 100 µM | UACC-257 > 100 µM | ACHN > 100 µM | SK-MEL-28 > 100 µM | SK-OV-3 > 100 µM | HL-60 > 100 µM | DU-145 > 100 µM | COLO 205 > 100 µM | MCF7 > 100 µM | SK-MEL-2 > 100 µM | Malme-3M > 100 µM | MDA-MB-231 > 100 µM | HOP-62 36 µM | OVCAR-8 > 100 µM | IGROV-1 > 100 µM | RPMI-8226 > 100 µM | PC-3 > 100 µM | EKVX > 100 µM | U-251 73.5 µM | KM12 > 100 µM | T47D > 100 µM | MDA-MB-435 > 100 µM | K562 > 100 µM | SF-539 91.2 µM | RXF 393 26 µM | HCT-116 > 100 µM | UACC-62 > 100 µM | M14 > 100 µM | A498 > 100 µM | OVCAR-5 > 100 µM | BT-549 > 100 µM | Hs-578T > 100 µM | SF-295 > 100 µM | TK-10 > 100 µM | OVCAR-4 > 100 µM | SW-620 > 100 µM
> 100 µM: HCT-15

CCNC(=O)CNC(=O)C(Cc1ccc([N+](=O)[O-])cc1)NC(=O)OC(C)(C)C (configuration not stated) (Boc-[ξPhe(4-NO2)]-Gly-NHEt)
> 100 µM: HCT-15
inactive: SNB-19 > 100 µM | MOLT-4 > 100 µM | NCI/ADR-RES > 100 µM | HOP-92 > 100 µM | NCI-H23 > 100 µM | MDA-N > 100 µM | CAKI-1 > 100 µM | HCC 2998 > 100 µM | A549 > 100 µM | CCRF-CEM > 100 µM | SK-MEL-5 > 100 µM | NCI-H522 > 100 µM | HT-29 > 100 µM | SNB-75 > 100 µM | OVCAR-3 > 100 µM | 786-0 > 100 µM | SR > 100 µM | SF-268 > 100 µM | NCI-H226 > 100 µM | NCI-H460 > 100 µM | SN12C > 100 µM | UO-31 > 100 µM | ACHN > 100 µM | SK-MEL-28 > 100 µM | SK-OV-3 > 100 µM | HL-60 > 100 µM | DU-145 > 100 µM | COLO 205 > 100 µM | MCF7 > 100 µM | Malme-3M > 100 µM | MDA-MB-231 > 100 µM | HOP-62 > 100 µM | OVCAR-8 > 100 µM | IGROV-1 > 100 µM | RPMI-8226 > 100 µM | PC-3 > 100 µM | EKVX > 100 µM | U-251 > 100 µM | KM12 > 100 µM | T47D > 10 µM | MDA-MB-435 > 100 µM | K562 > 100 µM | RXF 393 > 100 µM | LOX IMVI > 100 µM | HCT-116 > 100 µM | UACC-62 > 100 µM | M14 > 100 µM | A498 53.6 µM | OVCAR-5 > 100 µM | BT-549 > 100 µM | Hs-578T > 100 µM | SF-295 > 100 µM | TK-10 > 100 µM | OVCAR-4 > 100 µM | SW-620 > 100 µM
